Laboratory results from the supplement of paper PMC10307832.

Tests used:
Test in all cases: relative viability (nuclei count vs DMSO), 5 days (fraction); higher = more cells survive
[1] = compound: CC1=CC(=NN1)NC2=CC(=NC(=N2)/C=C/C3=CC=CC=C3)N4CCN(CC4)C + CCNC(=O)c1noc(-c2cc(C(C)C)c(O)cc2O)c1-c1ccc(CN2CCOCC2)cc1 [Luminespib] (partner 0.01 µM)
Procedure, shortened: (§1)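 Relative viability equals treated-well nuclei counts divided by vehicle-well nuclei counts. Counts came from 4× images of lung cancer cell lines grown in 1536-well plates for 5 days after pin-tool dosing on the day after seeding. Dosing used one drug alone or a fixed anchor-drug dose plus five library-drug doses (not always all listed) in √10 steps, and values are medians of duplicate plates.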

Bortezomib + Olaparib = compound: CC(C)C[C@H](NC(=O)[C@H](Cc1ccccc1)NC(=O)c1cnccn1)B(O)O [Bortezomib] + O=C(c1cc(Cc2n[nH]c(=O)c3ccccc23)ccc1F)N1CCN(C(=O)C2CC2)CC1 [Olaparib] (partner 8 µM)
Procedure, shortened: as §1

Bortezomib + Trametinib = compound: CC(C)C[C@H](NC(=O)[C@H](Cc1ccccc1)NC(=O)c1cnccn1)B(O)O [Bortezomib] + CC(=O)Nc1cccc(-n2c(=O)n(C3CC3)c(=O)c3c(Nc4ccc(I)cc4F)n(C)c(=O)c(C)c32)c1 [Trametinib] (partner 0.02 µM)
Procedure, shortened: as §1

[2] = compound: CC1=CC(=NN1)NC2=CC(=NC(=N2)/C=C/C3=CC=CC=C3)N4CCN(CC4)C
Procedure, shortened: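 Five library-drug doses spaced by √10 were pinned onto vehicle-anchored 1536-well plates of lung cancer cell lines that had been kept overnight at 37 °C. Cells went 5 days without medium change, then were fixed, permeabilised and Hoechst-stained together, imaged at 4× and counted by MetaXpress. Viability is the ratio of treated-well to vehicle-well nuclei, taken as a median over plates. Plates required control CV below 25% and at least one doubling.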

Cell Line	relative viability ([1]; first compound 0.08 µM)	relative viability ([1]; first compound 0.253 µM)	relative viability ([1]; first compound 0.8 µM)	relative viability ([1]; first compound 2.53 µM)	relative viability ([1]; first compound 8 µM)	relative viability (Bortezomib + Olaparib; first compound 0.0002 µM)	relative viability (Bortezomib + Olaparib; first compound 0.000632 µM)	relative viability (Bortezomib + Olaparib; first compound 0.002 µM)	relative viability (Bortezomib + Olaparib; first compound 0.006325 µM)	relative viability (Bortezomib + Olaparib; first compound 0.02 µM)	relative viability (Bortezomib + Trametinib; first compound 0.0002 µM)	relative viability (Bortezomib + Trametinib; first compound 0.000632 µM)	relative viability (Bortezomib + Trametinib; first compound 0.002 µM)	relative viability (Bortezomib + Trametinib; first compound 0.006325 µM)	relative viability (Bortezomib + Trametinib; first compound 0.02 µM)	relative viability ([2]; 0.08 µM)	relative viability ([2]; 0.253 µM)	relative viability ([2]; 0.8 µM)	relative viability ([2]; 2.53 µM)	relative viability ([2]; 8 µM)
201T	1.01	1.04	1.01	0.947	0.266	0.83	0.856	0.803	0.753	0.214	0.732	0.72	0.685	0.625	0.262	1.02	1.06	0.928	0.892	0.354
A549						0.355	0.401	0.49	0.291	0.189						0.909	1.04	0.92	0.29	0.0371
A-427	0.775	0.984	0.873	0.361	0.105	0.711	0.727	0.759	0.188	0.151	0.657	0.842	0.696	0.216	0.161	1.05	0.908	0.942	0.286	0.172
ABC-1	0.497	0.51	0.961	0.701	0.19	0.897	0.922	0.374	0.342	0.424						0.835	0.888	1.16	0.341	0.227
BEN	0.634	0.207	0.22	0.217	0.137	1.15	0.921	0.845	0.742	0.218	0.856	0.953	0.87	0.829	0.29	0.921	0.974	0.998	0.618	0.224
CAL-12T	0.429	0.512	0.356	0.123	0.074	0.625	0.675	0.62	0.282	0.199	0.378	0.335	0.327	0.156	0.133	0.977	0.946	0.928	0.339	0.187
COR-L23	0.723	0.813	0.593	0.398	0.0972	0.37	0.375	0.203	0.0613	0.0717	0.478	0.586	0.704	0.0593	0.06	1.03	1.1	0.976	0.237	0.116
COR-L 105	0.553	0.784	0.736	0.654	0.197	0.692	0.683	0.72	0.419	0.356	0.449	0.42	0.414	0.375	0.376	0.848	1	0.891	0.301	0.27
Calu-6						0.509	0.524	0.529	0.0855	0.0795						0.967	0.991	0.889	0.236	0.141
ChaGo-K-1	0.644	0.613	0.629	0.384	0.159	0.387	0.385	0.432	0.151	0.115	0.882	0.89	0.85	0.279	0.144	0.953	1.01	0.976	0.647	0.289
EBC-1						0.756	0.67	0.229	0.0791	0.064						0.945	0.966	0.953	0.475	0.178
EKVX	0.852	0.981	0.984	0.758	0.261	0.763	0.81	0.812	0.237	0.11	0.345	0.38	0.208	0.174	0.0845	0.9	1.05	1.09	0.844	0.267
EMC-BAC-2	1.2	1.21	1.15	0.733	0.271	0.469	0.486	0.487	0.258	0.185	1.02	1.01	0.803	0.341	0.307	0.939	1.03	0.886	0.477	0.246
EPLC-272H	0.456	0.458	0.149	0.11	0.0775	0.9	0.746	0.171	0.0682	0.0612	0.324	0.279	0.233	0.073	0.0585	0.819	1.09	0.908	0.404	0.35
H3255	1.03	0.991	0.892	0.771	0.559	0.579	0.545	0.36	0.233	0.237	0.593	0.69	0.331	0.239	0.274	0.966	1.05	1.04	0.931	0.473
HARA	0.699	0.791	0.348	0.139	0.043	0.973	0.809	0.872	0.0712	0.0979	0.642	0.592	0.896	0.0979	0.189	0.908	0.951	1.25	0.339	0.217
HCC-15	0.497	0.349	0.444	0.237	0.108	0.763	0.734	0.662	0.108	0.0913	0.39	0.394	0.426	0.117	0.104	1.01	1	1.01	0.524	0.1
HCC-44	1.04	1.53	0.993	0.842	0.164	0.942	0.986	0.99	0.715	0.315	1.1	1.04	0.984	0.92	0.277	0.986	1.01	0.933	0.86	0.18

Cell Line	relative viability ([1]; first compound 0.08 µM)	relative viability ([1]; first compound 0.253 µM)	relative viability ([1]; first compound 0.8 µM)	relative viability ([1]; first compound 2.53 µM)	relative viability ([1]; first compound 8 µM)	relative viability (Bortezomib + Olaparib; first compound 0.0002 µM)	relative viability (Bortezomib + Olaparib; first compound 0.000632 µM)	relative viability (Bortezomib + Olaparib; first compound 0.002 µM)	relative viability (Bortezomib + Olaparib; first compound 0.006325 µM)	relative viability (Bortezomib + Olaparib; first compound 0.02 µM)	relative viability (Bortezomib + Trametinib; first compound 0.0002 µM)	relative viability (Bortezomib + Trametinib; first compound 0.000632 µM)	relative viability (Bortezomib + Trametinib; first compound 0.002 µM)	relative viability (Bortezomib + Trametinib; first compound 0.006325 µM)	relative viability (Bortezomib + Trametinib; first compound 0.02 µM)	relative viability ([2]; 0.08 µM)	relative viability ([2]; 0.253 µM)	relative viability ([2]; 0.8 µM)	relative viability ([2]; 2.53 µM)	relative viability ([2]; 8 µM)
HCC-78						0.928	0.662	0.398	0.233	0.258	0.799	0.699	0.312	0.196	0.233	0.904	1.14	1.08	0.701	0.27
HCC-366						0.358	0.376	0.455	0.0607	0.0196	0.333	0.371	0.433	0.181	0.0229	0.954	1.03	0.985	0.452	0.0338
HCC-827	0.577	0.673	0.587	0.441	0.236	0.725	0.611	0.357	0.14	0.138	0.515	0.555	0.417	0.218	0.141	1.02	1.06	1.06	0.89	0.443
HOP-62	0.953	0.966	0.888	0.849	0.35	0.392	0.448	0.165	0.0947	0.0397	0.37	0.401	0.378	0.173	0.0647	1.03	1.11	1.04	0.825	0.367
IA-LM						0.765	0.824	0.791	0.0665	0.0149						0.852	1.07	1.1	0.866	0.231
LC-2-ad	1.11	1.23	0.693	0.611	0.204	0.68	0.723	0.782	0.194	0.184	0.903	0.89	0.995	0.597	0.201	1.02	0.996	0.799	0.303	0.177
LCLC-97TM1	0.806	0.796	0.67	0.341	0.0891	0.343	0.431	0.264	0.0586	0.0773	0.173	0.205	0.162	0.0973	0.063	0.911	0.963	0.912	0.504	0.121
LCLC-103H	0.912	1.03	0.876	0.814	0.269	0.747	0.778	0.671	0.355	0.202	0.661	0.687	0.589	0.336	0.256	0.998	1.07	1.02	0.835	0.694
LK-2	0.174	0.175	0.226	0.16	0.151	0.699	0.695	0.714	0.169	0.123	0.68	0.597	0.332	0.156	0.196	1.04	1.02	0.809	0.47	0.127
LOU-NH91	0.391	0.402	0.322	0.299	0.228	0.893	0.84	0.348	0.318	0.286	0.772	0.793	0.402	0.344	0.359	0.928	1.08	0.991	0.806	0.424
LU99A	0.254	0.235	0.192	0.197	0.161	0.238	0.26	0.242	0.154	0.122	0.546	0.522	0.567	0.517	0.148	1.02	0.883	0.786	0.426	0.269
LXF-289	0.658	0.755	0.672	0.33	0.104	1.01	1.03		0.0822	0.0818	0.699	0.672	0.768	0.113	0.101	0.993	1.02	0.964	0.863	0.435
NCI-H23	0.183	0.206	0.197	0.212	0.205	0.362		0.247	0.0989	0.0819	0.343		0.286	0.193	0.114	0.891	0.886	0.796	0.225	0.144
NCI-H1299						0.98	0.917	1.03	0.239	0.103						1.04	1.02	1.03	0.719	0.328
NCI-H1563	0.498	0.554	0.537	0.553	0.434											1.03	1.01	0.999	0.752	0.509
NCI-H1623	0.579	0.493	0.48	0.494	0.305											0.956	1.13	1.01	0.843	0.542
NCI-H1648						0.721	0.822	0.799	0.238	0.267	0.465	0.594	0.371	0.263	0.389	0.972	1.04	0.983	0.655	0.484
NCI-H1703						0.417	0.318	0.123	0.0785	0.0739						0.825	0.912	0.575	0.19	0.135
